Experimental data from patent US8207163B2, “Compositions, synthesis, and methods of using piperazine based antipsychotic agents” (Reviva Pharmaceuticals, Inc., priority 2008, dated 2012).
Structures can show the parent of a compound that is named as a salt.

What was measured:
[1] = molecular target: T1, serotonin 5-HT2A receptor (Human Cortex) (Homo sapiens, UniProt P28223); experiment: Serotonin, 5HT2A (human) radioligand binding assay, [3H]-Ketanserin; details: for IC50: six concentrations 0.5-1000 nM
T1 construct: Receptor Source: Human Cortex; from tissue; host or cells: human cortex
Experimental: (§1) The reactions were carried out in 50 mM TRIS-Hal (pH 7.4) containing 10 mM MgSO4, 0.5 mM EDTA and 0.1% Ascorbic acid at room temperature for 1 hour. The reaction was terminated by rapid vacuum filtration onto glass fiber filters. Radioactivity trapped onto the filters was determined and compared to control values in order to ascertain any interactions of test compounds with the cloned serotonin—5HT1A binding site (Literature Reference: Hoyer, D. et al. Eur. Journal Pharmacol. 1985, 118, 13-23; Schoeffier, P. and Hoyer, D. Naunyn-Schmiedeberg's Arch. Pharmac. 1989, 340, 135-138) • Serotonin, 5HT2A (human) binding assay: • Materials and Methods: • Receptor Source: Human Cortex • Radioligand: [^3H]-Ketanserin (60-90 Ci/mmol) • Control Compound: Ketanserin • Incubation Conditions:
The reactions were carried out in 50 mM TRIS-Hal (pH 7.6) at room temperature for 90 minutes. The reaction was terminated by rapid vacuum filtration onto glass fiber filters. Radioactivity trapped onto the filters was determined and compared to control values in order to ascertain any interactions of test compounds with the serotonin—5HT2A binding site (Literature Reference: Leysen, J. E. et al. Mol. Pharmacol. 1982, 21, 301-314; Martin, G. R. and Humphrey, P. P. A. Neuropharmacol. 1994, 33(3/4), 261-273.)
(§2) The radioligand binding assays for dopamine-D2S, serotonin-5HT1A and serotonin-5HT2A were carried out at six different concentrations and the test concentrations were 0.5 nM, 1 nM, 10 nm, 100 nM, 300 nM and 1000 nM.

[2] = molecular target: T2, dopamine D2S receptor (human recombinant expressed in CHO cells) (Homo sapiens, UniProt P14416); experiment: Dopamine, D2S (human recombinant) radioligand binding assay, [3H]Spiperone; details: for IC50: six concentrations 0.5-1000 nM
T2 construct: expressed in transfected cells; host or cells: CHO cells
Experimental: The piperazine derivatives comprising Formulae (I)-(X) described in this invention were tested in the in vitro pharmacological assays to evaluate their activities for dopamine, D2S, serotonin, 5-HT1A and serotonin, 5-HT2A receptors. The in vitro assay protocols and literature references are described herein. • Dopamine, D2S (human recombinant) binding assay: • Materials and Methods: [table] The reactions were carried out in 50 mM TRIS-Hal (pH 7.4) containing 120 mM NaCl, 5 mM KCl, 5 mM MgCl2, 1 mM EDTA for 60 minutes at 25 C. The reaction was terminated by rapid vacuum filtration onto glass fiber filters. Radioactivity trapped onto the filters was determined and compared to control values in order to ascertain any interactions of test compounds with the cloned dopamine—D2 short binding site (Literature Reference: Jarvis, K. R. et al. Journal of Receptor Research 1993, 13(1-4), 573-590; Gundlach, A. L. et al. Life Sciences 1984, 35, 1981-1988.) • Serotonin, 5HT1A (human recombinant) binding assay: • Materials and Methods: The radioligand binding assays for dopamine-D2S, serotonin-5HT1A and serotonin-5HT2A were carried out at six different concentrations and the test concentrations were 0.5 nM, 1 nM, 10 nm, 100 nM, 300 nM and 1000 nM.

[3] = molecular target: T3, serotonin 5-HT1A receptor (human recombinant expressed in HEK-293 cells) (Homo sapiens, UniProt P08908); experiment: Serotonin, 5HT1A (human recombinant) radioligand binding assay, [3H]-8-OH-DPAT; details: human recombinant in HEK-293 cells; for IC50: six concentrations 0.5-1000 nM
T3 construct: expressed in transfected cells; host or cells: HEK-293 cells (from the result head)
T3 sequence (P08908 1-422): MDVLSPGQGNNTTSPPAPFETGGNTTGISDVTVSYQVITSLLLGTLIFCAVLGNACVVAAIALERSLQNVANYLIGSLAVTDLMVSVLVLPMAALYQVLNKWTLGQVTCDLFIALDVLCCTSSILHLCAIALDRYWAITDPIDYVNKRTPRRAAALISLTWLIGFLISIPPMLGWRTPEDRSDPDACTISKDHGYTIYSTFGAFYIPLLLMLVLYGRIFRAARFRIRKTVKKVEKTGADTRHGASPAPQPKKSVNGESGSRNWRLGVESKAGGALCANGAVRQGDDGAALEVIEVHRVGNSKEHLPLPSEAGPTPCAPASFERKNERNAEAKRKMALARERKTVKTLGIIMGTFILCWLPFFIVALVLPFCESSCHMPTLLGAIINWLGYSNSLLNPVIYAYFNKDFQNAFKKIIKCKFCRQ
Experimental: as §1, §2

T2 sequence (P14416 1-414 isoform P14416-2): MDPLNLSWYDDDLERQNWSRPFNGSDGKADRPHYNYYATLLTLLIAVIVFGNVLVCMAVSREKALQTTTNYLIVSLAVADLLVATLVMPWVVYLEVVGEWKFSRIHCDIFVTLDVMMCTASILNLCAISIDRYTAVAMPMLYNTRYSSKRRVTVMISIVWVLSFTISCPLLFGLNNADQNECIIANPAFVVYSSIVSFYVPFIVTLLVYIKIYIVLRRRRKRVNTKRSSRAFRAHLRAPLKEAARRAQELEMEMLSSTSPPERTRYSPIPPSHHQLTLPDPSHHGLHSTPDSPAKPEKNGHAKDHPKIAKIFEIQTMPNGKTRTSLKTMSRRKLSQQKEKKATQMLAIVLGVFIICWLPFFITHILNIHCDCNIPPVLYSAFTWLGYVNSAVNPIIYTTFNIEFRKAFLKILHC
T1 sequence (P28223 whole entry): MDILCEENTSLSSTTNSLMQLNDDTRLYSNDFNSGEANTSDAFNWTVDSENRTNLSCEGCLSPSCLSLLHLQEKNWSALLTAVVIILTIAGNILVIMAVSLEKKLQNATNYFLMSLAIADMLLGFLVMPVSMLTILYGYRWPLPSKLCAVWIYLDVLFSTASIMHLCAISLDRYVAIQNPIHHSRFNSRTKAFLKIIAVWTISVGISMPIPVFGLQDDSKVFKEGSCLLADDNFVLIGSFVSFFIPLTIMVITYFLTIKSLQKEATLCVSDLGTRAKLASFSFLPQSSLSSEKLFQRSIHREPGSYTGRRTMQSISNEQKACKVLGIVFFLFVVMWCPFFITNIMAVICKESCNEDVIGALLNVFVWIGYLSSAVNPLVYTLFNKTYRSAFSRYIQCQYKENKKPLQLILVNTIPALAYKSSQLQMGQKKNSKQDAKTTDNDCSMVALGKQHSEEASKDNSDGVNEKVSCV

| Ki [1] [nM] | IC50 [1] [nM] | Ki [2] [nM] | IC50 [2] [nM] | Ki [3] [nM] | IC50 [3] [nM] | Structure (SMILES) |
| --- | --- | --- | --- | --- | --- | --- |
| 57.4 | 110 | 2.89 | 7.89 | 11.4 | 18.5 | O=C(CCCN1CCN(c2cccc(Cl)c2Cl)CC1)Nc1ccc2c(c1)NC(=O)CO2 [Compound 5b, 4-(4-(2,3-Dichlorophenyl)piperazin-1-yl)-N-(3-oxo-3,4-dihydro-2H-benzo[b][1,4]oxazin-6-yl)butanamide hydrochloride] |
| 282 | 572 | 6.77 | 19.2 | 10.2 | 16.7 | CCOC(=O)CCCOc1ccccc1N1CCN(CCCCOc2ccc3c(c2)NC(=O)CO3)CC1 [Compound 18a, Ethyl 4-(2-(4-(4-(3-oxo-3,4-dihydro-2H-benzo[b][1,4]oxazin-6-yloxy)butyl)piperazin-1-yl)phenoxy)butanoate hydrochloride] |
| 340 | 622 | 50.2 | 147 | 3.3 | 5.44 | CCOC(=O)C(C)(C)CCOc1ccccc1N1CCN(CCCCOc2ccc3c(c2)NC(=O)CO3)CC1 [Compound 18b, Ethyl 2,2-dimethyl-4-(2-(4-(4-(3-oxo-3,4-dihydro-2H-benzo[b][1,4]oxazin-6-yloxy)butyl)piperazin-1-yl)phenoxy)butanoate hydrochloride] |
| 185 | 376 | 2.09 | 5.93 | 2.67 | 4.41 | CCOC(=O)C(C)(C)Oc1ccccc1N1CCN(CCCCOc2ccc3c(c2)NC(=O)CO3)CC1 [Compound 18c, Ethyl 2-methyl-2-(2-(4-(4-(3-oxo-3,4-dihydro-2H-benzo[b][1,4]oxazin-6-yloxy)butyl)piperazin-1-yl)phenoxy)propanoate hydrochloride] |

| Structure (SMILES) | Ki [1] [nM] | IC50 [1] [nM] | Ki [2] [nM] | IC50 [2] [nM] | Ki [3] [nM] | IC50 [3] [nM] |
| --- | --- | --- | --- | --- | --- | --- |
| CCOC(=O)CN1C(=O)COc2ccc(OCCCCN3CCN(c4cccc(Cl)c4Cl)CC3)cc21 [Compound 28c, Ethyl 2-(6-(4-(4-(2,3-dichlorophenyl)piperazin-1-yl)butoxy)-3-oxo-2H-benzo[b][1,4]oxazin-4(3H)-yl)acetate hydrochloride] | 106 | 237 | 15.5 | 49.4 | 2.96 | 4.45 |
